Data taken from PubChem BioAssay AID1963960 (Molecular Pharmacology Branch, DTP, NCI, 2024).
pIC50: −log10 of the molar value.

Test system: MDA-MB-468 spheroids with HUVEC/MSC, viability
Assay: Anticancer human tumor MDA-MB-468 cell line growth inhibition [PI3K];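 also: spheroids exposed to agents for seven days before readout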;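 as to viability, T/C: 100% = DMSO vehicle control viability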
Settings: for viability, T/C: stronger effect = lower value
Method in brief: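 Spheroid viability read-out. Co-cultures contained the tumor line plus HUVEC and human MSCs. Each agent was paired with a PI3K inhibitor (inavolisib, alpelisib, duvelisib, copanlisib) across half-log dilutions starting at clinical Cmax, or at 10 microM when Cmax was unknown.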

[1] = curve of first compound, second compound 0.00316 µM
[2] = curve of first compound, second compound 0.01 µM
[3] = curve of first compound, second compound 0.0316 µM
[4] = curve of first compound, second compound 0.1 µM
[5] = curve of first compound, second compound 0.316 µM
[6] = curve of first compound, second compound 1 µM
[7] = second compound 0.00316 µM, first compound 0.0316 µM
[8] = second compound 0.00316 µM, first compound 0.1 µM
[9] = second compound 0.00316 µM, first compound 0.316 µM
[10] = second compound 0.00316 µM, first compound 1 µM
[11] = second compound 0.00316 µM, first compound 3.16 µM
[12] = second compound 0.00316 µM, first compound 10 µM
[13] = second compound 0.01 µM, first compound 0.0316 µM
[14] = second compound 0.01 µM, first compound 0.1 µM
[15] = second compound 0.01 µM, first compound 0.316 µM
[16] = second compound 0.01 µM, first compound 1 µM
[17] = second compound 0.01 µM, first compound 3.16 µM
[18] = second compound 0.01 µM, first compound 10 µM
[19] = second compound 0.0316 µM, first compound 0.0316 µM
[20] = second compound 0.0316 µM, first compound 0.1 µM
[21] = second compound 0.0316 µM, first compound 0.316 µM
[22] = second compound 0.0316 µM, first compound 1 µM
[23] = second compound 0.0316 µM, first compound 3.16 µM
[24] = second compound 0.0316 µM, first compound 10 µM
[25] = second compound 0.1 µM, first compound 0.0316 µM
[26] = second compound 0.1 µM, first compound 0.1 µM
[27] = second compound 0.1 µM, first compound 0.316 µM
[28] = second compound 0.1 µM, first compound 1 µM
[29] = second compound 0.1 µM, first compound 3.16 µM
[30] = second compound 0.1 µM, first compound 10 µM
[31] = second compound 0.316 µM, first compound 0.0316 µM
[32] = second compound 0.316 µM, first compound 0.1 µM
[33] = second compound 0.316 µM, first compound 0.316 µM
[34] = second compound 0.316 µM, first compound 1 µM
[35] = second compound 0.316 µM, first compound 3.16 µM
[36] = second compound 0.316 µM, first compound 10 µM
[37] = second compound 1 µM, first compound 0.0316 µM
[38] = second compound 1 µM, first compound 0.1 µM
[39] = second compound 1 µM, first compound 0.316 µM
[40] = second compound 1 µM, first compound 1 µM
[41] = second compound 1 µM, first compound 3.16 µM
[42] = second compound 1 µM, first compound 10 µM
[43] = curve of first compound, second compound 3.16 µM
[44] = curve of first compound, second compound 10 µM
[45] = second compound 3.16 µM, first compound 0.0316 µM
[46] = second compound 3.16 µM, first compound 0.1 µM
[47] = second compound 10 µM, first compound 0.0316 µM
[48] = second compound 10 µM, first compound 0.1 µM

C=CC(=O)N1CCN(c2nc(=O)n(-c3c(C)ccnc3C(C)C)c3nc(-c4c(O)cccc4F)c(F)cc23)C(C)C1 (stereo not given) + CC(Nc1ccc2c(c1)OCCn1cc(N3C(=O)OCC3C(F)F)nc1-2)C(N)=O
pIC50 [1]: < 5.00
pIC50 [2]: < 5.00
pIC50 [3]: < 5.00
pIC50 [4]: < 5.00
pIC50 [5]: < 5.00
pIC50 [6]: 5.10
viability, T/C [7]: 85.4%
viability, T/C [8]: 92.4%
viability, T/C [9]: 98.7%
viability, T/C [10]: 107%
viability, T/C [11]: 98.3%
viability, T/C [12]: 82.5%
viability, T/C [13]: 91.3%
viability, T/C [14]: 101%
viability, T/C [15]: 82.3%
viability, T/C [16]: 101%
viability, T/C [17]: 97.3%
viability, T/C [18]: 73%
viability, T/C [19]: 92.5%
viability, T/C [20]: 95.3%
viability, T/C [21]: 87.1%
viability, T/C [22]: 86.8%
viability, T/C [23]: 96.4%
viability, T/C [24]: 66.1%
viability, T/C [25]: 104%
viability, T/C [26]: 82.5%
viability, T/C [27]: 87.4%
viability, T/C [28]: 102%
viability, T/C [29]: 86%
viability, T/C [30]: 59.6%
viability, T/C [31]: 84.5%
viability, T/C [32]: 66.2%
viability, T/C [33]: 76.4%
viability, T/C [34]: 91.4%
viability, T/C [35]: 93.6%
viability, T/C [36]: 55.9%
viability, T/C [37]: 82.6%
viability, T/C [38]: 93.9%
viability, T/C [39]: 77.8%
viability, T/C [40]: 84.7%
viability, T/C [41]: 64%
viability, T/C [42]: 46.3%

Cn1ncnc1[C@H]1c2n[nH]c(=O)c3cc(F)cc(c23)N[C@@H]1c1ccc(F)cc1 + Cc1nc(NC(=O)N2CCCC2C(N)=O)sc1-c1ccnc(C(C)(C)C(F)(F)F)c1
pIC50 [3]: < 7.00
pIC50 [4]: 7.18
pIC50 [5]: 7.37
pIC50 [6]: 7.61
pIC50 [43]: 8.38
pIC50 [44]: > 9.50
viability, T/C (second compound 0.0316 µM, first compound 0.000316 µM): 88.3%
viability, T/C (second compound 0.0316 µM, first compound 0.001 µM): 79.8%
viability, T/C (second compound 0.0316 µM, first compound 0.00316 µM): 84.7%
viability, T/C (second compound 0.0316 µM, first compound 0.01 µM): 98.3%
viability, T/C [19]: 84%
viability, T/C [20]: 56.3%
viability, T/C (second compound 0.1 µM, first compound 0.000316 µM): 80.2%
viability, T/C (second compound 0.1 µM, first compound 0.001 µM): 93.7%
viability, T/C (second compound 0.1 µM, first compound 0.00316 µM): 81.9%
viability, T/C (second compound 0.1 µM, first compound 0.01 µM): 93%
viability, T/C [25]: 62.7%
viability, T/C [26]: 43%
viability, T/C (second compound 0.316 µM, first compound 0.000316 µM): 88%
viability, T/C (second compound 0.316 µM, first compound 0.001 µM): 76.6%
viability, T/C (second compound 0.316 µM, first compound 0.00316 µM): 83.7%
viability, T/C (second compound 0.316 µM, first compound 0.01 µM): 79.6%
viability, T/C [31]: 52.5%
viability, T/C [32]: 43%
viability, T/C (second compound 1 µM, first compound 0.000316 µM): 94.2%
viability, T/C (second compound 1 µM, first compound 0.001 µM): 78%
viability, T/C (second compound 1 µM, first compound 0.00316 µM): 62.9%
viability, T/C (second compound 1 µM, first compound 0.01 µM): 62%
viability, T/C [37]: 46.1%
viability, T/C [38]: 41.4%
viability, T/C (second compound 3.16 µM, first compound 0.000316 µM): 64.7%
viability, T/C (second compound 3.16 µM, first compound 0.001 µM): 60%
viability, T/C (second compound 3.16 µM, first compound 0.00316 µM): 50.4%
viability, T/C (second compound 3.16 µM, first compound 0.01 µM): 46.7%
viability, T/C [45]: 37.6%
viability, T/C [46]: 36.2%
viability, T/C (second compound 10 µM, first compound 0.000316 µM): 35.2%
viability, T/C (second compound 10 µM, first compound 0.001 µM): 25.9%
viability, T/C (second compound 10 µM, first compound 0.00316 µM): 31.2%
viability, T/C (second compound 10 µM, first compound 0.01 µM): 26.9%
viability, T/C [47]: 20.3%
viability, T/C [48]: 18.5%

C[C@@H](NC(=O)c1ncnc(N)c1Cl)c1ncc(C(=O)Nc2cc(C(F)(F)F)c(Cl)cn2)s1 + Cc1nc(NC(=O)N2CCCC2C(N)=O)sc1-c1ccnc(C(C)(C)C(F)(F)F)c1
pIC50 [3]: < 5.00
pIC50 [4]: < 5.00
pIC50 [5]: < 5.00
pIC50 [6]: < 5.00
pIC50 [43]: 5.04
pIC50 [44]: > 7.50
viability, T/C [19]: 75.5%
viability, T/C [20]: 109%
viability, T/C [21]: 85.4%
viability, T/C [22]: 117%
viability, T/C [23]: 89.7%
viability, T/C [24]: 82.8%
viability, T/C [25]: 88.4%
viability, T/C [26]: 89.2%
viability, T/C [27]: 86.4%
viability, T/C [28]: 119%
viability, T/C [29]: 95%
viability, T/C [30]: 85.2%
viability, T/C [31]: 107%
viability, T/C [32]: 92.2%
viability, T/C [33]: 78.8%
viability, T/C [34]: 98.3%
viability, T/C [35]: 85.3%
viability, T/C [36]: 68.6%
viability, T/C [37]: 91.9%
viability, T/C [38]: 71.8%
viability, T/C [39]: 72.7%
viability, T/C [40]: 75.7%
viability, T/C [41]: 69.1%
viability, T/C [42]: 61.6%
viability, T/C [45]: 84.7%
viability, T/C [46]: 59.2%
viability, T/C (second compound 3.16 µM, first compound 0.316 µM): 74.8%
viability, T/C (second compound 3.16 µM, first compound 1 µM): 61.4%
viability, T/C (second compound 3.16 µM, first compound 3.16 µM): 59.3%
viability, T/C (second compound 3.16 µM, first compound 10 µM): 46.8%
viability, T/C [47]: 40.2%
viability, T/C [48]: 31.9%
viability, T/C (second compound 10 µM, first compound 0.316 µM): 39.3%
viability, T/C (second compound 10 µM, first compound 1 µM): 35.4%
viability, T/C (second compound 10 µM, first compound 3.16 µM): 34%
viability, T/C (second compound 10 µM, first compound 10 µM): 17.1%

Cn1ncnc1[C@H]1c2n[nH]c(=O)c3cc(F)cc(c23)N[C@@H]1c1ccc(F)cc1
viability, T/C (compound 0.000316 µM): 95.9% [middle of 4 runs]
viability, T/C (compound 0.001 µM): 93.9% [middle of 4 runs]
viability, T/C (compound 0.00316 µM): 85.1% [middle of 4 runs]
viability, T/C (compound 0.01 µM): 82.2% [middle of 4 runs]
viability, T/C (compound 0.0316 µM): 87.3% [middle of 4 runs]
viability, T/C (compound 0.1 µM): 56.5% [middle of 4 runs]
pIC50 (curve of compound): < 7.00

Cn1nccc1Nc1nccc(-c2ccn(C(CO)c3ccc(Cl)c(F)c3)c(=O)c2)n1 (stereo not given) + COc1c(OCCCN2CCOCC2)ccc2c3n(c(=NC(=O)c4cnc(N)nc4)nc12)CCN3
pIC50 [1]: < 5.00
pIC50 [2]: < 5.00
pIC50 [3]: 5.12
pIC50 [4]: 5.36
pIC50 [5]: > 7.50
pIC50 [6]: > 7.50
viability, T/C [7]: 90.7%
viability, T/C [8]: 83%
viability, T/C [9]: 79.1%
viability, T/C [10]: 85.3%
viability, T/C [11]: 81.3%
viability, T/C [12]: 73.6%
viability, T/C [13]: 71.1%
viability, T/C [14]: 86.5%
viability, T/C [15]: 78.7%
viability, T/C [16]: 71.8%
viability, T/C [17]: 77.9%
viability, T/C [18]: 76.9%
viability, T/C [19]: 71.3%
viability, T/C [20]: 68.7%
viability, T/C [21]: 71.7%
viability, T/C [22]: 73.9%
viability, T/C [23]: 61.9%
viability, T/C [24]: 46%
viability, T/C [25]: 56.3%
viability, T/C [26]: 54.9%
viability, T/C [27]: 52.5%
viability, T/C [28]: 52.4%
viability, T/C [29]: 50.9%
viability, T/C [30]: 48.6%
viability, T/C [31]: 24.6%
viability, T/C [32]: 23.3%
viability, T/C [33]: 23.3%
viability, T/C [34]: 24.9%
viability, T/C [35]: 26%
viability, T/C [36]: 19.9%
viability, T/C [37]: 3.06%
viability, T/C [38]: 2.27%
viability, T/C [39]: 2.37%
viability, T/C [40]: 2.51%
viability, T/C [41]: 1.79%
viability, T/C [42]: 0.85%
